{"source": "paper PMC11834790", "about": "“Pyridine indole hybrids as novel potent CYP17A1 inhibitors” (Journal of Enzyme Inhibition and Medicinal Chemistry, 2025)", "key": {"CYP17A1 [1]": {"target": "T1, CYP17A1 (Homo sapiens, UniProt P05093)", "T1 construct": "immortalised human adrenal cells expressing CYP17A1 and other steroidogenic enzymes; endogenous in cells; host or cells: NCI-H295R (human adrenal cells)", "T1 sequence (P05093 1-508)": "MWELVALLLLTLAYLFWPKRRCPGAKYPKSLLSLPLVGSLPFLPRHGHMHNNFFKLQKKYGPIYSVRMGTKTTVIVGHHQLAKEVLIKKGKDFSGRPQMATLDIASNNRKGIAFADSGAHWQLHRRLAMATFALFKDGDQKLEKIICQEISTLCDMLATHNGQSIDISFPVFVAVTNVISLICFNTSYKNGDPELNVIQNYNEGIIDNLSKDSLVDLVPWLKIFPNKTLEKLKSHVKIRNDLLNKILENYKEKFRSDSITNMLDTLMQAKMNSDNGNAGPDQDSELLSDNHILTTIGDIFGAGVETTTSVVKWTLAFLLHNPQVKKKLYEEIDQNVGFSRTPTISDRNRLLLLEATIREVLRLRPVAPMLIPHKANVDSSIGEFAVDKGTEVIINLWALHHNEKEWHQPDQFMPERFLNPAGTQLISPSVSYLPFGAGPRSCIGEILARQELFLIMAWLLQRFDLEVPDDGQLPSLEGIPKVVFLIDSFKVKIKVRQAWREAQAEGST", "experiment": "CYP17A1 activity calculated as ratios of steroid products to substrates (LC-MS)", "type": "cell-based", "settings": "normalised to DMSO-treated cells (100%), NCI-H295R", "procedure": "(§1) Steroid quantification was performed using Liquid Chromatography–Mass Spectrometry (LC-MS), following established protocols to study effect of compounds on adrenal steroidogenesis. Human adrenal NCI-H295R cells were seeded in 12-well plates at 500 000 cells per well and treated with fresh growth medium containing the test compounds for 4 h. Subsequently, 1 µM pregnenolone was added and incubated for an additional 4 h. Steroids were extracted from 500 µL aliquots of cell media, separated, and quantified according to the referenced methodology.\nTo provide deeper insights into CYP17A1 inhibition, the enzyme activity was calculated using ratios of steroid products to substrates, focusing on dual activities of CYP17A1 (Figure 4(B))."}, "CYP17A1 [2]": {"target": "T1, CYP17A1", "experiment": "CYP17A1 17,20-lyase activity assay in NCI-H295R cells (tritiated water release)", "type": "cell-based", "settings": "4 h, DMSO = 100, read-out: CYP17A1 Lyase activity, Mean (percentage of activity remaining relative to the control)", "procedure": "(§2) Human adrenal NCI-H295R cells are an established model for assay of CYP17A1 activities. The NCI-H295R cells were seeded in 12-well plates at 500 000 cells per well and incubated overnight. On the following day, 10 µM of test compounds were added to the wells with fresh medium and incubated for 4 h. Abiraterone was used as a reference, and DMSO was included as a control. For assessing CYP17A1 hydroxylase activity, cells were treated with [^14C]-Progesterone at 10 000 cpm/1 µM per well. Trilostane was added prior to the test compounds and substrate to inhibit 3β-hydroxysteroid dehydrogenase activity so that a clean assay of only CYP17A1 activity could be performed[20]^,[27]^,[28]. Radiolabeled steroids were extracted from the media using a mixture of ethyl acetate and isooctane (1:1 v/v) and separated by Thin Layer Chromatography (TLC) on silica gel-coated aluminium plates (Supelco® Analytics, Sigma-Aldrich Chemie GmbH, Taufkirchen, Germany). TLC spots were visualised on a phosphor screen and detected by autoradiography using a Typhoon™ FLA-7000 PhosphorImager (GE Healthcare, Uppsala, Sweden). Radioactivity was quantified with ImageQuant™ TL analysis software (GE Healthcare Europe GmbH, Freiburg, Germany), and enzyme activity was expressed as the percentage of radioactivity incorporated into the product relative to the total radioactivity. For CYP17A1 lyase activity, cells were exposed to 50 000 cpm/1 µM [21-^3H]-17α-hydroxypregnenolone per well under similar conditions. The tritiated water release assay was used to measure the conversion of 17OH-Pregnenolone to DHEA. Steroids in the media were precipitated using a 5% activated charcoal/0.5% dextran solution. Enzyme activity was evaluated based on the water-soluble tritiated by-product formed in equimolar amounts with DHEA, with radioactivity in the aqueous phase quantified by liquid scintillation counting (MicroBeta2® Plate Counter, PerkinElmer Inc., Waltham, MA, USA). Percent inhibition was calculated relative to control samples."}, "VCaP cells": {"tested_on": "VCaP cells", "experiment": "Alamar blue (resazurin) cell viability, VCaP", "type": "cell-based, human", "settings": "10 µM, 24 and 48 h", "procedure": "(§3) LNCaP and RWPE-1 cells were plated in 96-well plates at 10 000 cells per well and incubated overnight at 37 °C with 5% CO2. VCaP cells were plated at 12 000 cells per well under the same conditions. After 24 h, the medium was replaced with fresh medium containing the compounds or abiraterone at a final concentration of 10 µM. Cells were incubated for an additional 24 and 48 h. Cell viability was measured using the Alamar Blue assay. Post-incubation, 0.05 mg/mL Alamar Blue solution in phosphate-buffered saline (PBS) was added to each well. The plates were incubated in the dark at 37 °C for 4 h, and fluorescence was measured at an excitation wavelength of 550 nm and an emission wavelength of 590 nm. Cell viability was calculated relative to control sample treated with DMSO. All experiments were conducted in triplicate."}, "CYP17A1 [3]": {"target": "T1, CYP17A1", "experiment": "CYP17A1 17α-hydroxylase activity assay in NCI-H295R cells ([14C]-progesterone, TLC)", "type": "cell-based", "settings": "4 h, DMSO = 100, read-out: CYP17A1 Hydroxylase activity, Mean (percentage of activity remaining relative to the control)", "procedure": "as §2"}, "[4]": {"experiment": "Alamar blue (resazurin) cell viability, RWPE-1", "type": "cell-based", "settings": "human, RWPE-1 cells, of the control", "procedure": "as §3"}, "LNCaP cells": {"tested_on": "LNCaP cells", "experiment": "Alamar blue (resazurin) cell viability, LNCaP", "type": "cell-based, human", "settings": "10 µM, 24 and 48 h", "procedure": "as §3"}, "[5]": {"tested_on": "adrenal steroidogenesis in NCI-H295R cells", "experiment": "Steroid profiling by LC-MS in NCI-H295R cells", "type": "cell-based, human", "settings": "compounds at 10 µM", "procedure": "as §1"}, "DU-145 cells": {"tested_on": "DU-145 cells", "experiment": "Scratch (wound healing) assay", "type": "cell-based, human", "settings": "DU-145, 10 µM, 24 h; DMSO 170.5", "procedure": "Human prostate cancer DU-145 cells show strong cell proliferation and therefore, are an established model for assay of antiproliferative effects of test compounds. DU-145 cells were plated in 24-well plates at 50 000 cells per well and grown until they reached 85% confluence. To inhibit cell proliferation, cells were treated with 5 µg/mL mitomycin for 2 h. A wound was created using a 10 µL pipette tip. The cells were then exposed to drugs at a concentration of 10 µM, while control wells received DMSO. Wound closure was observed and photographed using an optical microscope after 24 h. Images were analysed using ImageJ software (version 1.54j)."}, "[6]": {"settings": "not detected within the experimental timeframe, DMSO 0"}}}
{"molecule": "C[C@]12CC[C@H](O)CC1=CC[C@@H]1[C@@H]2CC[C@]2(C)C(c3cccnc3)=CC[C@@H]12", "note": "[ABT, abiraterone, reference compound]", "values": [{"measurement": "17α-Hydroxylase activity (ratios of steroid products to substrates)", "setting": "CYP17A1 [1]", "value": 15.2, "unit": "%"}, {"measurement": "Combined 17α-hydroxylase and 17,20-lyase activity (ratios of steroid products to substrates)", "setting": "CYP17A1 [1]", "value": "~16.3", "unit": "%"}, {"measurement": "remaining activity at 10 µM", "setting": "CYP17A1 [2]", "value": 24, "unit": "%"}, {"measurement": "Cytotoxic effect on VCaP cells (in words)", "setting": "VCaP cells", "value": "notable reduction in cell viability"}, {"measurement": "remaining activity at 10 µM", "setting": "CYP17A1 [3]", "value": 14, "unit": "%"}, {"measurement": "viability at 24 h, 10 µM", "setting": "[4]; 24 h", "value": 84, "unit": "%"}, {"measurement": "viability at 48 h, 10 µM", "setting": "[4]; 48 h", "value": 66, "unit": "%"}, {"measurement": "Cytotoxic effect on LNCaP cells (in words)", "setting": "LNCaP cells", "value": "notable reduction in cell viability"}, {"measurement": "Androsterone, Mean", "setting": "[5]; 1 µM pregnenolone, DMSO 0", "value": 0, "unit": "nmol/L"}, {"measurement": "Testosterone, Mean", "setting": "[5]; 1 µM pregnenolone, DMSO 0.4785", "value": 0.5005, "unit": "nmol/L"}, {"measurement": "Progesterone, Mean", "setting": "[5]; 1 µM pregnenolone, DMSO 4.814", "value": 3.809, "unit": "nmol/L"}, {"measurement": "Androstendione, Mean", "setting": "[5]; 1 µM pregnenolone, DMSO 7.577", "value": 1.5465, "unit": "nmol/L"}, {"measurement": "17a-Hydroxyprogesterone, Mean", "setting": "[5]; 1 µM pregnenolone, DMSO 9.967", "value": 1.202, "unit": "nmol/L"}, {"measurement": "DHEA, Mean", "setting": "[5]; 1 µM pregnenolone, DMSO 15.119", "value": 2.775, "unit": "nmol/L"}, {"measurement": "11-Deoxycortisol, Mean", "setting": "[5]; 1 µM pregnenolone, DMSO 26.594", "value": 3.585, "unit": "nmol/L"}, {"measurement": "11-Deoxycorticosterone, Mean", "setting": "[5]; 1 µM pregnenolone, DMSO 28.1555", "value": 2.6135, "unit": "nmol/L"}, {"measurement": "Pregnenolone, Mean", "setting": "[5]; 1 µM pregnenolone, DMSO 2043.56", "value": 2279.668, "unit": "nmol/L"}, {"measurement": "Cortisone, Mean", "setting": "[5]; [6]", "value": 0, "unit": "nmol/L"}, {"measurement": "DHEA-S, Mean", "setting": "[5]; [6]", "value": 0, "unit": "nmol/L"}, {"measurement": "Dihydrotestosterone, Mean", "setting": "[5]; [6]", "value": 0, "unit": "nmol/L"}, {"measurement": "Wound area, Mean (area remaining open)", "setting": "DU-145 cells", "value": 935, "unit": "Pixels^2"}]}
